Assay results taken from PubChem BioAssay (NCI).
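Values below derive from 48-hour exposures of cells grown in 96-well plates, with endpoints linearly interpolated between the two concentrations bracketing the appropriate inhibition level. GI50: concentration for 50% inhibition of growth. Definition used: TGI = concentration required for complete inhibition of growth.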

What was measured:
Experiment in all cases: NCI-60 cell line screen, 48 h
CCRF-CEM leukemia = system: CCRF-CEM leukemia
COLO 205 colon = system: COLO 205 colon
EKVX NSCLC = system: EKVX NSCLC
HOP-92 NSCLC = system: HOP-92 NSCLC
KM12 colon = system: KM12 colon
NCI-H226 lung = system: NCI-H226 lung
NCI-H460 lung = system: NCI-H460 lung
OVCAR-3 ovarian = system: OVCAR-3 ovarian
SF-295 CNS = system: SF-295 CNS
SK-OV-3 ovarian = system: SK-OV-3 ovarian

Structure (SMILES)	GI50 (CCRF-CEM leukemia)	TGI (CCRF-CEM leukemia)	GI50 (COLO 205 colon)	TGI (COLO 205 colon)	GI50 (EKVX NSCLC)	TGI (EKVX NSCLC)	GI50 (HOP-92 NSCLC)	TGI (HOP-92 NSCLC)	GI50 (KM12 colon)	TGI (KM12 colon)	GI50 (NCI-H226 lung)	TGI (NCI-H226 lung)	GI50 (NCI-H460 lung)	TGI (NCI-H460 lung)	GI50 (OVCAR-3 ovarian)	TGI (OVCAR-3 ovarian)	GI50 (SF-295 CNS)	TGI (SF-295 CNS)	GI50 (SK-OV-3 ovarian)	TGI (SK-OV-3 ovarian)
O=c1[nH]c2cc(O)ccc2n2cc3c(F)cccc3c12	2.68 µM	> 100 µM	7.3 µM	> 100 µM	4.69 µM	> 100 µM	3.41 µM	> 100 µM	1.86 µM	> 100 µM	2.04 µM	> 100 µM	0.451 µM	> 100 µM	5.77 µM	> 100 µM	2.85 µM	> 100 µM	1.65 µM	> 100 µM
CCOC(=O)NNC(=O)NC12CC3CC(CC(C3)C1)C2	–	> 100 µM	–	> 100 µM	–	> 100 µM	–	> 100 µM	–	> 100 µM	–	> 100 µM	–	> 100 µM	–	> 100 µM	–	> 100 µM	–	> 100 µM
CC(=O)C1=C(O)/C(=C\c2ccco2)OC1=O	–	> 10 µM	–	> 10 µM	–	> 10 µM	–	> 10 µM	–	> 10 µM	–	> 10 µM	–	> 10 µM	–	> 10 µM	–	> 10 µM	–	> 10 µM
CCSc1nc(N)c2cnn(C)c2n1	42.3 µM	> 100 µM	29.9 µM	> 100 µM	56.7 µM	> 100 µM	77.4 µM	> 100 µM	34.6 µM	> 100 µM	27.4 µM	69.2 µM	31.6 µM	> 100 µM	30.6 µM	> 100 µM	51.7 µM	> 100 µM	54.8 µM	> 100 µM
CCCCCCCCC(=O)NCCCNCCCNC(=O)CCCCCCCC	–	14.9 µM	–	9.57 µM	–	30.1 µM	–	14.1 µM	–	3.48 µM	–	35.1 µM	–	6.57 µM	–	30.5 µM	–	14.2 µM	–	29.2 µM
COC1C(CO)OC(n2c3ccccc3c3c4c(c5c6ccccc6[nH]c5c32)C(=O)NC4=O)C(O)C1OC(=O)C(N)CCCCN (centres undefined)	0.23 µM	> 50 µM	1.27 µM	> 17.2 µM	1.69 µM	8.86 µM	1.54 µM	12.9 µM	0.499 µM	4.13 µM	0.777 µM	9.59 µM	3.64 µM	27.1 µM	0.822 µM	5.1 µM	1.26 µM	7.43 µM	2.11 µM	> 15.5 µM
C=C(C)[C@@H]1CCC[C@]2(C(=O)O)CC[C@]3(C)[C@@H](CC[C@@H]4[C@@]5(C)C/C(=C/c6ccncc6)C(=O)C(C)(C)[C@@H]5CC[C@]43C)[C@@H]12	3.16 µM	> 100 µM	1.64 µM	3.25 µM	3.2 µM	46.3 µM	1.71 µM	7.19 µM	1.8 µM	3.87 µM	4.66 µM	53.4 µM	1.87 µM	4.45 µM	1.89 µM	3.85 µM	2.04 µM	6.63 µM	4.91 µM	34.3 µM
Nc1ccc2c(c1)CN1C(=O)c3ccccc3C1=N2	37.6 µM	> 90 µM	33.9 µM	> 125 µM	72.2 µM	> 125 µM	47.9 µM	110 µM	37.9 µM	> 125 µM	36.8 µM	> 117 µM	–	> 125 µM	98.8 µM	> 125 µM	32.2 µM	> 116 µM	46.5 µM	> 122 µM
O=C1c2cccc3cccc(c23)C(=O)N1CCCN1CCN(CCCN2C(=O)c3cccc4cccc(c34)C2=O)CC1	–	> 100 µM	–	> 100 µM	–	> 100 µM	–	> 100 µM	–	> 100 µM	–	> 100 µM	–	> 100 µM	–	> 100 µM	–	> 100 µM	–	> 100 µM
N#CC(=C=[N-])[n+]1ccc(Cl)cc1	–	56 µM	–	32.9 µM	–	33.8 µM	–	29.8 µM	–	59.7 µM	–	66.7 µM	–	55.5 µM	–	31.5 µM	–	38.9 µM	–	> 100 µM
COC(=O)C1CCC(=NC2c3ccccc3-c3ccccc32)N1 (centres undefined)	–	> 100 µM	–	> 100 µM	–	> 100 µM	–	76.6 µM	–	> 100 µM	–	> 100 µM	–	> 100 µM	–	> 100 µM	–	> 100 µM	–	> 100 µM
CN(C)c1ccc(Sc2ccc3nc(N)nc(N)c3c2)cc1	0.906 µM	30.1 µM	1.14 µM	2.59 µM	2.27 µM	23.5 µM	1.32 µM	5.83 µM	1.16 µM	12.2 µM	4.21 µM	18.6 µM	0.174 µM	2.71 µM	1.56 µM	4.59 µM	0.537 µM	14.1 µM	2.71 µM	16.8 µM
O=C1c2ccccc2C(=O)c2c1ccc1c3ccccc3n(Cc3ccccc3)c21	–	> 100 µM	–	> 100 µM	–	> 100 µM	–	94.2 µM	–	> 100 µM	–	> 100 µM	–	> 100 µM	–	> 100 µM	–	> 100 µM	–	> 100 µM
CCc1nc(N)nc(N)c1-c1ccc([N+](=O)[O-])c(Cl)c1	–	> 100 µM	–	> 100 µM	–	> 100 µM	–	> 100 µM	–	> 100 µM	–	> 100 µM	–	> 100 µM	–	> 100 µM	–	> 100 µM	–	> 100 µM
CCC1(N2C(=O)c3c(F)c(F)c(F)c(F)c3C2=O)C(=O)NC(=O)N(c2ccccc2)C1=O (centres undefined)	1.31 µM	3.8 µM	2.57 µM	6.78 µM	2.77 µM	8.01 µM	2.01 µM	4.17 µM	2.58 µM	8.31 µM	10.9 µM	24.2 µM	3.22 µM	11.5 µM	1.67 µM	4.1 µM	2.57 µM	7.55 µM	10.6 µM	31 µM
C/C(=N/Nc1ccc([N+](=O)[O-])cc1[N+](=O)[O-])C(CC(C(=O)Nc1ccccc1C)/C(C)=N\Nc1ccc([N+](=O)[O-])cc1[N+](=O)[O-])C(=O)Nc1ccccc1C (centres undefined)	–	> 100 µM	–	25.4 µM	–	38 µM	–	15.5 µM	–	38.5 µM	–	19.3 µM	–	36.4 µM	–	22.4 µM	–	33.9 µM	–	> 61.2 µM
